Laboratory results published in article PMC2150390, “High-dose cyclosporin with etoposide--toxicity and pharmacokinetic interaction in children with solid tumours” (British Journal of Cancer, 1998).

Test: Etoposide pharmacokinetics with and without cyclosporin (plasma HPLC, non-compartmental analysis)
Type: in vivo, human
Conditions: for Clearance Cl+ / Half-life t1/2+ / Area under drug concentration curve AUC+: with cyclosporin; for Clearance Cl+ / Half-life t1/2+ / Area under drug concentration curve AUC+ / Clearance Cl- / Half-life t1/2- / Area under drug concentration curve AUC-: etoposide 150 mg m-2 over 1 hour; for Area under drug concentration curve AUC+ / Area under drug concentration curve AUC-: plasma HPLC, non-compartmental; for Median area under the concentration time curve for etoposide: etoposide 150 mg m-2 i.v.
[1] = Table 3, patient 1, cyclosporin schedule A
[2] = Table 3, patient 1, cyclosporin schedule A, without cyclosporin
[3] = Table 3, patient 2, cyclosporin schedule A
[4] = Table 3, patient 2, cyclosporin schedule A, without cyclosporin
[5] = Table 3, patient 4, cyclosporin schedule A
[6] = Table 3, patient 4, cyclosporin schedule A, without cyclosporin
[7] = Table 3, patient 5, cyclosporin schedule A
[8] = Table 3, patient 5, cyclosporin schedule A, without cyclosporin
[9] = Table 3, patient 6, cyclosporin schedule A
[10] = Table 3, patient 6, cyclosporin schedule A, without cyclosporin
[11] = Table 3, patient 7, cyclosporin schedule A
[12] = Table 3, patient 7, cyclosporin schedule A, without cyclosporin
[13] = Table 3, patient 8, cyclosporin schedule A
[14] = Table 3, patient 8, cyclosporin schedule A, without cyclosporin
[15] = Table 3, patient 9, cyclosporin schedule B
[16] = Table 3, patient 9, cyclosporin schedule B, without cyclosporin
[17] = Table 3, patient 10, cyclosporin schedule B
[18] = Table 3, patient 10, cyclosporin schedule B, without cyclosporin
[19] = Table 3, patient 11, cyclosporin schedule B
[20] = Table 3, patient 11, cyclosporin schedule B, without cyclosporin
[21] = Table 3, patient 13, cyclosporin schedule B
[22] = Table 3, patient 13, cyclosporin schedule B, without cyclosporin
[23] = Table 3, patient 14, cyclosporin schedule A
[24] = Table 3, patient 14, cyclosporin schedule A, without cyclosporin
[25] = Table 3, patient 15, cyclosporin schedule A
[26] = Table 3, patient 15, cyclosporin schedule A, without cyclosporin
[27] = Table 3, patient 17, cyclosporin schedule A
[28] = Table 3, patient 17, cyclosporin schedule A, without cyclosporin
[29] = Table 3, patient 18, cyclosporin schedule A
[30] = Table 3, patient 18, cyclosporin schedule A, without cyclosporin

## COc1cc([C@@H]2c3cc4c(cc3[C@@H](O[C@@H]3O[C@@H]5CO[C@@H](C)O[C@H]5[C@H](O)[C@H]3O)[C@H]3COC(=O)[C@H]23)OCO4)cc(OC)c1O [etoposide]
15 patients, paired, P < 0.001
  Mean change in etoposide AUC with cyclosporin: +89%
  Mean change in etoposide clearance with cyclosporin: -48%
[1]
  Clearance Cl+: 15.7 mL/min
  Half-life t1/2+: 5.08 h
  Area under drug concentration curve AUC+: 14.6 mg·min/mL
[2]
  Clearance Cl-: 28.5 mL/min
  Half-life t1/2-: 3.27 h
  Area under drug concentration curve AUC-: 8.1 mg·min/mL
[3]
  Clearance Cl+: 8.6 mL/min
  Half-life t1/2+: 9.28 h
  Area under drug concentration curve AUC+: 26.2 mg·min/mL
[4]
  Clearance Cl-: 22.0 mL/min
  Half-life t1/2-: 3.43 h
  Area under drug concentration curve AUC-: 10.2 mg·min/mL
[5]
  Clearance Cl+: 18.6 mL/min
  Half-life t1/2+: 5.75 h
  Area under drug concentration curve AUC+: 16.9 mg·min/mL
[6]
  Clearance Cl-: 36.5 mL/min
  Half-life t1/2-: 5.08 h
  Area under drug concentration curve AUC-: 8.6 mg·min/mL
[7]
  Clearance Cl+: 15.2 mL/min
  Half-life t1/2+: 3.15 h
  Area under drug concentration curve AUC+: 7.9 mg·min/mL
[8]
  Clearance Cl-: 30.2 mL/min
  Half-life t1/2-: 2 h
  Area under drug concentration curve AUC-: 3.8 mg·min/mL
[9]
  Clearance Cl+: 11.9 mL/min
  Half-life t1/2+: 3.82 h
  Area under drug concentration curve AUC+: 8.8 mg·min/mL
[10]
  Clearance Cl-: 15.9 mL/min
  Half-life t1/2-: 2.75 h
  Area under drug concentration curve AUC-: 6.6 mg·min/mL
[11]
  Clearance Cl+: 10.8 mL/min
  Half-life t1/2+: 4.72 h
  Area under drug concentration curve AUC+: 10.7 mg·min/mL
[12]
  Clearance Cl-: 21.9 mL/min
  Half-life t1/2-: 1.72 h
  Area under drug concentration curve AUC-: 5.3 mg·min/mL
[13]
  Clearance Cl+: 9.9 mL/min
  Half-life t1/2+: 6.9 h
  Area under drug concentration curve AUC+: 10.1 mg·min/mL
[14]
  Clearance Cl-: 27.2 mL/min
  Half-life t1/2-: 2.05 h
  Area under drug concentration curve AUC-: 3.6 mg·min/mL
[15]
  Clearance Cl+: 10.0 mL/min
  Half-life t1/2+: 4.9 h
  Area under drug concentration curve AUC+: 16.4 mg·min/mL
[16]
  Clearance Cl-: 25.8 mL/min
  Half-life t1/2-: 3.47 h
  Area under drug concentration curve AUC-: 6.4 mg·min/mL
[17]
  Clearance Cl+: 11.6 mL/min
  Half-life t1/2+: 6.93 h
  Area under drug concentration curve AUC+: 14.2 mg·min/mL
[18]
  Clearance Cl-: 28.6 mL/min
  Half-life t1/2-: 1.37 h
  Area under drug concentration curve AUC-: 5.8 mg·min/mL
[19]
  Clearance Cl+: 16.2 mL/min
  Half-life t1/2+: 5.23 h
  Area under drug concentration curve AUC+: 14.3 mg·min/mL
[20]
  Clearance Cl-: 32.5 mL/min
  Half-life t1/2-: 2.93 h
  Area under drug concentration curve AUC-: 7.4 mg·min/mL
[21]
  Clearance Cl+: 7.8 mL/min
  Half-life t1/2+: 4.93 h
  Area under drug concentration curve AUC+: 13.1 mg·min/mL
[22]
  Clearance Cl-: 15.3 mL/min
  Half-life t1/2-: 2.47 h
  Area under drug concentration curve AUC-: 6.7 mg·min/mL
[23]
  Clearance Cl+: 14.3 mL/min
  Half-life t1/2+: 6.68 h
  Area under drug concentration curve AUC+: 15.8 mg·min/mL
[24]
  Clearance Cl-: 29.3 mL/min
  Half-life t1/2-: 2.57 h
  Area under drug concentration curve AUC-: 7.7 mg·min/mL
[25]
  Clearance Cl+: 22.6 mL/min
  Half-life t1/2+: 6.78 h
  Area under drug concentration curve AUC+: 12.9 mg·min/mL
[26]
  Clearance Cl-: 38.1 mL/min
  Half-life t1/2-: 4.3 h
  Area under drug concentration curve AUC-: 7.7 mg·min/mL
[27]
  Clearance Cl+: 20.2 mL/min
  Half-life t1/2+: 6.12 h
  Area under drug concentration curve AUC+: 13.4 mg·min/mL
[28]
  Clearance Cl-: 29.1 mL/min
  Half-life t1/2-: 3.85 h
  Area under drug concentration curve AUC-: 9.3 mg·min/mL
[29]
  Clearance Cl+: 10.1 mL/min
  Half-life t1/2+: 11.4 h
  Area under drug concentration curve AUC+: 21.5 mg·min/mL
[30]
  Clearance Cl-: 12.8 mL/min
  Half-life t1/2-: 10.3 h
  Area under drug concentration curve AUC-: 17.1 mg·min/mL
Cyclosporin 3-h infusion
  Percentage increase in etoposide AUC, mean: 106%
Cyclosporin 24-h infusion
  Percentage increase in etoposide AUC, mean: 89%
With high-dose cyclosporin
  Median area under the concentration time curve for etoposide: 12.5 mg·min/mL
Without cyclosporin
  Median area under the concentration time curve for etoposide: 7.2 mg·min/mL
